Data: ChEMBL document CHEMBL3045827, “High osmolar contrast medium causes mild oxidation in liver, bladder, and ovary tissues from rats: vitamin C has protective role” (2010)

Tests used:
[1] = tested on: Rattus norvegicus; test: Inhibition of ionic high-osmolar contrast medium-induced oxidative stress in Rattus norvegicus Wistar albino (rat) bladder assessed as MDA level at 250 mg/kg/day administered through drinking water measured on 6th day by TBARS method (reference value: 1.180 +/- 0.803 %); assay type: functional; parameters: scale not given: the % may be the effect or the level left
[2] = tested on: Rattus norvegicus; test: Inhibition of ionic high-osmolar contrast medium-induced oxidative stress in Rattus norvegicus Wistar albino (rat) liver assessed as catalase activity at 250 mg/kg/day administered through drinking water measured on 6th day (reference value: 119.8 +/- 13.43 IU); assay type: functional
[3] = tested on: Rattus norvegicus; test: Inhibition of ionic high-osmolar contrast medium-induced oxidative stress in Rattus norvegicus Wistar albino (rat) liver assessed as SOD activity at 250 mg/kg/day administered through drinking water measured on 6th day by NBT reduction method (reference value: 146.4 +/- 25.89 U/mg); assay type: functional
[4] = tested on: Rattus norvegicus; test: Inhibition of ionic high-osmolar contrast medium-induced oxidative stress in Rattus norvegicus Wistar albino (rat) liver assessed as GSH-Px activity at 250 mg/kg/day administered through drinking water measured on 6th day (reference value: 0.056 +/- 0.019 IU); assay type: functional
[5] = tested on: Rattus norvegicus; test: Inhibition of ionic high-osmolar contrast medium-induced oxidative stress in Rattus norvegicus Wistar albino (rat) liver assessed as NOS activity at 250 mg/kg/day administered through drinking water measured on 6th day (reference value: 0.208 +/- 0.031 mIU/ml); assay type: functional
[6] = tested on: Rattus norvegicus; test: Inhibition of ionic high-osmolar contrast medium-induced oxidative stress in Rattus norvegicus Wistar albino (rat) liver assessed as NO level at 250 mg/kg/day administered through drinking water measured on 6th day by Griess reaction method (reference value: 1.082 +/- 0.359%); assay type: functional; parameters: scale not given: the % may be the effect or the level left
[7] = tested on: Rattus norvegicus; test: Inhibition of ionic high-osmolar contrast medium-induced oxidative stress in Rattus norvegicus Wistar albino (rat) ovary assessed as MDA level at 250 mg/kg/day administered through drinking water measured on 6th day by TBARS method (reference value: 0.986 +/- 0.323 %); assay type: functional, Female gonad; parameters: scale not given: the % may be the effect or the level left
[8] = tested on: Rattus norvegicus; test: Inhibition of ionic high-osmolar contrast medium-induced oxidative stress in Rattus norvegicus Wistar albino (rat) liver assessed as MDA level at 250 mg/kg/day administered through drinking water measured on 6th day by TBARS method (reference value: 0.579 +/- 0.129 %); assay type: functional; parameters: scale not given: the % may be the effect or the level left

Question: How did the Activity [1] turn out when `O=C1O[C@H]([C@@H](O)CO)C(O)=C1O` [ASCORBIC ACID] was run?
Answer: 0.821%

Question: And the Activity [2]?
Answer: 118.9 IU

Question: What about the Activity [3] of the same molecule?
Answer: 193.2 U/mg

Question: And the Activity [4]?
Answer: 0.05 IU

Question: And the Activity [5]?
Answer: 0.224 mIU/ml

Question: What about the Activity [6] of the same molecule?
Answer: 0.965%

Question: And the Activity [7]?
Answer: 0.762%

Question: What about the Activity [8] of the same molecule?
Answer: 0.49%
